The values below come from ChEMBL document CHEMBL3751692, “Synthesis and fluorescent study of 5-phenyl furocoumarin derivatives as vasodilatory agents” (Bioorg Med Chem Lett, 2016).

Experiment [1] in a line: Vasodilator activity in Sprague-Dawley rat mesentric artery assessed as reduction in of K+-induced contraction relative to control. In kind it is functional. The settings on record: Mesenteric artery.
Experiment [2] in a line: Vasodilator activity in Sprague-Dawley rat mesentric artery assessed as reduction in of K+-induced contraction. The experiment is classed as functional, Mesenteric artery.

What is called Emax is the greatest response seen or fitted, relative to the assay's reference. One may read the pEC50 as −log10 of the EC50, conventionally taken in molar units. On to `CC(C)=CCOc1c2occc2cc2ccc(=O)oc12` [PENTOSALEN], for which, in experiment [1], the Emax is 85.6%. Besides, in experiment [2], the pEC50 is on record as 4.95.

On to `CCOC(=O)c1ccccc1-c1c2ccoc2c(OCCN2CCCCC2)c2oc(=O)ccc12`, for which the Emax in experiment [1] is 113%. In addition, in experiment [2], the pEC50 amounted to 5.38.

With `COC(=O)c1ccccc1-c1c2ccoc2c(OCCN2CCOCC2)c2oc(=O)ccc12`, the Emax in experiment [1] is 100%. In experiment [2], the pEC50 is reported as 5.59.

Turning to `COC(=O)c1ccccc1-c1c2ccoc2c(OCCN2CCCC2)c2oc(=O)ccc12`, in experiment [1], the Emax turned out to be 102%. Also, the pEC50 in experiment [2] is 4.71.

For `COC(=O)c1ccccc1-c1c2ccoc2c(OCCN(C)C)c2oc(=O)ccc12`, the Emax in experiment [1] came out at 102%. The pEC50 in experiment [2] is given as 5.27.

Take `CCOC(=O)c1ccccc1-c1c2ccoc2c(OCCN2CCOCC2)c2oc(=O)ccc12`: in experiment [1], the Emax stood at 113%. For the same compound, in experiment [2], the pEC50 was 5.81.

As to `CCOC(=O)c1ccccc1-c1c2ccoc2c(OCCN2CCCC2)c2oc(=O)ccc12`, the Emax in experiment [1] was found to be 100%. For the same compound, the pEC50 in experiment [2] is 5.15.

As to `COC(=O)c1ccccc1-c1c2ccoc2c(OCCN2CCCCC2)c2oc(=O)ccc12`, the Emax in experiment [1] was 116%. In addition, the pEC50 in experiment [2] was 5.35.

`COc1ccc(CCN(C)CCCC(C#N)(c2ccc(OC)c(OC)c2)C(C)C)cc1OC` (stereo not drawn) [VERAPAMIL]: the Emax in experiment [1] is 95.8%. In addition, in experiment [2], the pEC50 stood at 7.51.
